Laboratory results taken from patent US9096593B2, “Compounds and methods for kinase modulation, and indications therefor” (Plexxikon Inc., priority 2009, dated 2015).

Key:
[1] = molecular target: Fms kinase (Homo sapiens (Human), UniProt P07333); experiment: Fms kinase biochemical activity assay (AlphaScreen, biotin-(E4Y)10 phosphorylation); conditions: 100 μM ATP; read-out: Biochemical (IC50 μM) Fms
Procedure: In one assay the biochemical activity IC50 values are determined with respect to inhibition of Fms kinase activity, where inhibition of phosphorylation of a peptide substrate is measured as a function of compound concentration. Compounds to be tested, dissolved in DMSO (1 μL), are added to a white 384-well plate (Costar #3705). Working stocks of Fms kinase (Invitrogen #PV3249), biotin-(E4Y)10 substrate (Upstate Biotech, Cat#12-440), and ATP (Sigma, Cat#A-3377) are prepared in 25 mM Hepes pH 7.5, 0.5 mM MgCl2, 2 mM MnCl2, 2 mM DTT, 0.01% BSA, and 0.01% Tween-20. All components are added to the 384-well plate for a final concentration of 1 ng/well Fms, 30 nM biotin-(E4Y)10 (Upstate Biotechnology) and 100 μM ATP in a volume of 20 μL. Each sample is at 5% DMSO. The plate is then incubated for 20 minutes at 30° C. Just before use, working stocks of donor and acceptor beads from the AlphaScreen PY20 Detection Kit (PerkinElmer, Cat#676601M) are prepared in 25 mM Hepes pH 7.5, pH 7.4, 100 mM EDTA, 0.01% BSA. To stop the reaction, the plate is uncovered in the dark and 5 μL of Donor Beads solution (Streptavidin beads) is added to each well. The plate is incubated at room temperature for 20 minutes. Five microliters of Acceptor Beads solution (PY20 coated beads) are then added to each well. The final concentration of each bead is 10 μg/mL. The plates are incubated at room temperature for 60 minutes. Fluorescence signal is recorded on the Envision reader. […] The signal vs. compound concentration is used to determine the IC50.

[2] = molecular target: Flt-3 kinase (Homo sapiens (Human), UniProt P36888); experiment: Flt-3 kinase biochemical activity assay (AlphaScreen, biotin-(E4Y)10 phosphorylation); conditions: 100 μM ATP
Chain of Flt-3 kinase (P36888 27-993): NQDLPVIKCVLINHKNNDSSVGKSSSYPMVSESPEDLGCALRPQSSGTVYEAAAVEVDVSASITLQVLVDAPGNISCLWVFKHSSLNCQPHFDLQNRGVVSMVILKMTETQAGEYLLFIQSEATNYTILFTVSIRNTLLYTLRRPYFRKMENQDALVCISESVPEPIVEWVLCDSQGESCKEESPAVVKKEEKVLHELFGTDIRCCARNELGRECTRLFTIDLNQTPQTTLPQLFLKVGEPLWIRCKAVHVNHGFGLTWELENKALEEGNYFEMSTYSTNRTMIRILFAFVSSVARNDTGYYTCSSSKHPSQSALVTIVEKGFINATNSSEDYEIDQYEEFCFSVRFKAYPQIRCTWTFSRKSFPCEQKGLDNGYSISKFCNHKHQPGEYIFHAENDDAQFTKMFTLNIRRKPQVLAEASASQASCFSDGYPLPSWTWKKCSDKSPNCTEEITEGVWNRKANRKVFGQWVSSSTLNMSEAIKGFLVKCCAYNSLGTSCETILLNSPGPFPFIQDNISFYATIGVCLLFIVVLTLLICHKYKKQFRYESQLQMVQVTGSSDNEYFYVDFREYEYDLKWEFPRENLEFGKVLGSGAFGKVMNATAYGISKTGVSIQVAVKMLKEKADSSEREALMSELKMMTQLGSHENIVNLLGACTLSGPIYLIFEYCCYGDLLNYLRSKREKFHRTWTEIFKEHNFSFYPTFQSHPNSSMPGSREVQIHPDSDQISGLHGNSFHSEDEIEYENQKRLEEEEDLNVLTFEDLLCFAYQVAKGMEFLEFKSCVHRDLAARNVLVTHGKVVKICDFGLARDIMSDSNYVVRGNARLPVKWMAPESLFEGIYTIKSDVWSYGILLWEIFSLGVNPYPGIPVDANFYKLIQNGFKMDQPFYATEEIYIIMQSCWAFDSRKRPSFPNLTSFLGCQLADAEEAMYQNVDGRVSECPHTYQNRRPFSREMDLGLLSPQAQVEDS
Procedure: In one assay the biochemical activity IC50 values are determined with respect to inhibition of Flt-3 kinase activity, where inhibition of phosphorylation of a peptide substrate is measured as a function of compound concentration. Compounds to be tested, dissolved in DMSO (1 μL), are added to a white 384-well plate (Costar #3705). Working stocks of Flt-3 kinase (Invitrogen), biotin-(E4Y)10 substrate (Upstate Biotech, Cat#12-440), and ATP (Sigma, Cat#A-3377) are prepared in 25 mM Hepes pH 7.5, 5 mM MgCl2, 5 mM MnCl2, 1 mM DTT, and 0.01% Tween-20. All components are added to the 384-well plate for a final concentration of 1 ng/well Flt-3, 30 nM biotin-(E4Y)10 and 100 μM ATP in a volume of 20 μL. Each sample is at 5% DMSO. The plate is then incubated for 1 hour at room temperature. Just before use, working stocks of donor and acceptor beads from the AlphaScreen PY20 Detection Kit (PerkinElmer, Cat#676601M) are prepared in 25 mM Hepes pH 7.5, pH 7.4, 100 mM EDTA. 0.3% BSA. To stop the reaction, the plate is uncovered in the dark and 5 μL of Donor Beads solution (Streptavidin beads) is added to each well. The plate is incubated at room temperature for 20 minutes. Five microliters of Acceptor Beads solution (PY20 coated beads) are then added to each well. The final concentration of each bead is 10 μg/mL. The plates are incubated at room temperature for 60 minutes. Fluorescence signal is recorded on the Envision reader. Phosphorylated substrate results in binding of the PY20 antibody and association of the donor and acceptor beads such that signal correlates with kinase activity. The signal vs. compound concentration is used to determine the IC50.

[3] = molecular target: BCR-FMS/BaF3 cells (Homo sapiens, UniProt P07333); experiment: BCR-FMS/BaF3 cell proliferation assay (ATPlite); type: cell-based; conditions: read-out: Cell based (IC50 μM) BCR/BaF3 (Fms); BCR-FMS/BaF3 cells, 3 days
Chain of BCR-FMS/BaF3 cells (P07333 20-972 limits assumed, change not shown): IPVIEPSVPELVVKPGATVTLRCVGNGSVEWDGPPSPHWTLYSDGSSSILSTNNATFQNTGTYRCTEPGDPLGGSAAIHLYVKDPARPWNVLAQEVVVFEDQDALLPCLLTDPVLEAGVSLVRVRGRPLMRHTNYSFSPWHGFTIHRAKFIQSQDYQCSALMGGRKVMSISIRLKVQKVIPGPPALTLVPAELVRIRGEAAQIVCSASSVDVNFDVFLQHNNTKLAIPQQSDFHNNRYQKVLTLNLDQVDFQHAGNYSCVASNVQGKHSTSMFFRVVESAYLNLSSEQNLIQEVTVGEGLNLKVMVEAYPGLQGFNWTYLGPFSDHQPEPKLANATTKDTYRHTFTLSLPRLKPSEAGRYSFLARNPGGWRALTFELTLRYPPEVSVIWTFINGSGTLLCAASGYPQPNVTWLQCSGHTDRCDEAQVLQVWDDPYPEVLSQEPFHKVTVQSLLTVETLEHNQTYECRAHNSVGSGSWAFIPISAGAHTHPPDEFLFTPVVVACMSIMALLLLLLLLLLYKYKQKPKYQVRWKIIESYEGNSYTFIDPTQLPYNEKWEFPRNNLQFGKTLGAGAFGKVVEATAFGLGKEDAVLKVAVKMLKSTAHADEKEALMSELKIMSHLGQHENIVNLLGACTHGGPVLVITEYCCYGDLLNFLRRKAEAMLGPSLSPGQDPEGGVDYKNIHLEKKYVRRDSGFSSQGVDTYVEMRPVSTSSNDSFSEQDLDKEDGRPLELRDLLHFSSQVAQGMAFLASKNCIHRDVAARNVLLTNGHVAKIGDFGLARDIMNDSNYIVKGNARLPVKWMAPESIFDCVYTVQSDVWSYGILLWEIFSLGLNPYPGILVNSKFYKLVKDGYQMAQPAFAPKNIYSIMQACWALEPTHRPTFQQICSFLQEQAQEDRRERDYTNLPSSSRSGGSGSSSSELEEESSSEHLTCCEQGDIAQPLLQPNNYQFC
Procedure: Compounds are assessed in a variety of cell based assays. For example BCR-FMS/BaF3, BCR-KIT/BaF3, M-NFS-60, M-07e, and BAC1.2F5 cell proliferation assays are used to assess inhibitory activity of Fms or Kit and MV-4-11 cell proliferation assay is used to assess inhibitory activity in Flt-3. […] On day 1, cells are counted, then centrifuged in a conical tube for 5 minutes at 1000 rpm. The supernatant is removed and cells are re-suspended as follows: • BCR-FMS/BaF3 and BCR-KIT/BaF3: resuspend in growth media+1 mg/mL G418 (without WEHI/IL-3) to 2×10^5 cells/mL. • M-NFS-60: resuspend in growth media +62 ng/mL murine M-CSF to 5×10^5 cells/mL. • M-07e: resuspend in growth media +200 ng/mL human SCF to 5×10^5 cells/mL. • BAC1.2F5: resuspend in growth media +36 ng/mL murine M-CSF to 1.4×10^5 cells/mL. • MV-4-11: resuspend in growth media +10% FBS to 5×10^5 cells/mL. […] On day 2, compound at a maximum concentration of 5 mM is serially diluted 1:3 for a total of 8 point titration with DMSO as a control. A 1 μL aliquot of each dilution point is added to 249 μL growth media and 50 μL is added to a well containing cells, providing 10 μM compound for the maximum concentration point. The cells are incubated for 3 days at 37° C. in 5% CO2. […] ATPlite is added to each well as follows: • BCR-FMS/BaF3 and BCR-KIT/BaF3: 25 μL per well. • M-NFS-60: 25 μL per well. • M-07c: 40 μL per well. • BAC1.2F5: 50 μL per well. • MV-4-11: 40 μL per well. The cells are incubated at room temperature for 10 minutes, then luminescence is read on Safire reader. The measured luminescence correlates directly with cell number, such that the reading as a function of compound concentration is used to determine the IC50 value.

Measured: IC50

Chain of Fms kinase (P07333 20-972): as the sequence (P07333 20-972 limits assumed, change not shown) above

Fc1cc(CNc2ncc(Cc3c[nH]c4ncc(Cl)cc34)cn2)cc(C(F)(F)F)c1 [Compound P-2009, [5-(5-Chloro-1H-pyrrolo[2,3-b]pyridin-3-ylmethyl)-pyrimidin-2-yl]-(3-fluoro-5-trifluoromethyl-benzyl)-amine]
< 0.1 µM: all assays above

COc1ncc(CNc2ccc(Cc3c[nH]c4ncc(C(F)(F)F)cc34)c(F)n2)cc1F [Compound P-1646, (5-Fluoro-6-methoxy-pyridin-3-ylmethyl)-[6-fluoro-5-(5-trifluoromethyl-1H-pyrrolo[2,3-b]pyridin-3-ylmethyl)-pyridin-2-yl]-amine]
< 0.1 µM: all assays above

FC(F)(F)c1cnc2[nH]cc(Cc3ccc(NCc4ccc(C(F)(F)F)nc4)nc3)c2c1 [Compound P-1644, (6-Trifluoromethyl-pyridin-3-ylmethyl)-[5-(5-trifluoromethyl-1H-pyrrolo[2,3-b]pyridin-3-ylmethyl)-pyridin-2-yl]-amine]
< 0.1 µM: all assays above
